In EPA's ToxValDB 9.5 (doi:10.2903/j.efsa.2014.3742):
Values after ≈ are worked out from the molar mass of the structure shown.

Legend:
[1] = test system: Oncorhynchus mykiss; conditions: for LC50: acute, duration: 96 hours, mortality; for NOEC: chronic/long-term
[2] = test system: Tagia sp.; conditions: for LC50: acute
[3] = test system: Folsomia candida; conditions: chronic/long-term
[4] = test system: Daphnia magna; conditions: chronic/long-term; duration: 21 days
[5] = test system: Apis mellifera; conditions: acute, mortality
[6] = test system: Oryctolagus sp.; conditions: reproduction developmental; morphology
[7] = test system: Rattus norvegicus
[8] = test system: Colinus virginianus; conditions: acute; oral; mortality
[9] = test system: Anas platyrhynchos

Row | SMILES | LC50 [1] [µg/mL] | NOEC ([1]; duration: 28 days, other) [mg/L] | LC50 [2] [mg/kg] | NOEC ([2]; chronic/long-term) [mg/kg] | NOEC [3] [mg/kg] | NOEC [4] [mg/L] | NOEC ([1]; duration: 21 days) [mg/L] | LD50 ([5]; dermal) [µg/piece] | LD50 ([5]; oral, unspecified) [µg/piece] | NOAEL [6] [mg/kg-day] | LC50 ([2]; duration: 14 days, mortality) [mg/kg] | LC50 ([7]; acute, mortality) [mg/kg] | NOAEL ([7]; reproduction developmental) [mg/kg-day] | NOAEL ([7]; reproduction developmental, morphology) [mg/kg-day] | NOAEL ([7]; subchronic, duration: 90 days, oral, histopathology: neoplastic) [mg/kg-day] | LD50 [8] [mg/kg] | NOEC ([9]; reproductive, duration: 15 months, morphology) [mg/kg-day] | LC50 ([9]; short-term, duration: 5 days, oral, feed, mortality) [mg/kg]
1 | c1nc[nH]n1 [1H-1,2,4-Triazole] | 498 (≈ 7.21 mM) | 3.2 | > 1000 | ≤ 1 | 1.8 | – | – | – | – | – | – | – | – | – | – | – | – | –
2 | Nc1ncn[nH]1 [Amitrole] | > 1000 | – | – | – | – | 0.32 | 100 | > 100 | > 152 | 3 | > 448 | 5000 | 0.9 | 0.12 | 0.1 | > 2150 | 16 | > 829
